Assays:
[1] = test system: Male C57BL/6 mice, tibialis anterior (TA) muscle; assay: Mouse model of muscular atrophy: unilateral tibialis anterior immobilization; format: in vivo; details: 10 mg/kg i.p. twice a day for 7 days; 6 days TA immobilization; immobilized TA weight normalized to contralateral mobile TA; 12-13 mice
Method: Compounds of the invention were also tested in vivo in an established mouse model for muscular atrophy. Male C57BL/6 mice (8-10 weeks old) were administered i.p. injections of vehicle (corn oil) or 10 mg/kg test compound twice a day for 7 days. After 1 day of i.p. injections, one tibialis anterior (TA) muscle in each mouse was immobilized with a metal clip to induce skeletal muscle atrophy, as described previously (Dyle et al., Journal of Biological Chemistry 289: 14913-14924, 2014). In each mouse, the contralateral TA muscle remained mobile and served as a non-atrophied intrasubject control. After 7 days of i.p injections (6 days of unilateral TA immobilization), bilateral TA muscles were harvested and weighed. In each mouse, the amount of skeletal muscle loss in the immobilized TA muscle was determined by normalizing the weight of the immobilized TA muscle to the weight of the contralateral mobile (control) TA muscle. The data below are means ±SEM from 12-13 mice per condition. table: […]

C2C12 skeletal myotubes = assay: Total cellular protein content in C2C12 skeletal myotubes (BCA); format: cell-based, Mouse; details: 48 h incubation, vs vehicle (0.1% DMSO); for Percent change in total protein at 0.03 µM / Percent change in total protein at 0.1 µM / Percent change in total protein at 0.3 µM / Percent change in total protein at 1 µM / Percent change in total protein at 3 µM: Mus musculus, C2C12
Method: The compounds were tested in a well-established in vitro model of skeletal muscle, namely fully differentiated, post-mitotic C2C12 skeletal myotubes. Mouse C2C12 myoblasts may be obtained from ATCC (CRL-1772) and maintained at 37° C. and 5% CO2 in Dulbecco's modified Eagle's medium (ATCC #30-2002) containing antibiotics (100 units/mL penicillin, […] streptomycin sulfate) and 10% (v/v) fetal bovine serum (FBS). Myoblasts were set up for experiments on day 0 in 6-well plates at a density of 2.5×10^5 cells/well. On day 2, myoblasts were induced to differentiate into myotubes by replacing 10% FBS with 2% horse serum (HS). On day 7, myotubes were rinsed once with PBS, and then 2% HS was replaced with 10% FBS. The vehicle (0.1% DMSO) or varying concentrations of test compound were added directly to the media. After 48 h incubation, myotube protein content and size were measured.
To determine myotube protein content, myotubes were washed with ice cold PBS, scraped into lysis buffer (10 mM Tris-HCl, pH 7.6, 100 mM NaCl, and 1% (w/v) SDS, complete Mini protease inhibitor cocktail (Roche), and a 1:100 dilution of phosphatase inhibitor cocktail 3 (Sigma)), and then lysed with 10 passes through a 22-gauge needle. An aliquot of each myotube lysate sample was then used to determine protein concentration by the BCA kit (Pierce). […] To determine myotube size, myotubes were subjected to immunofluorescence staining with anti-troponin primary antibody and a fluorescent secondary antibody. Myotubes were then imaged on an Olympus IX-71 microscope equipped with a DP-70 camera and epifluorescence filters. Image analysis was performed using ImageJ software.

Row | Structure (SMILES) | % Muscle Loss (Mean ± SEM) [1] [%] | Percent change in total protein at 0.03 µM (C2C12 skeletal myotubes; 0.03 μM) [%] | Percent change in total protein at 0.1 µM (C2C12 skeletal myotubes; 0.1 μM) [%] | Percent change in total protein at 0.3 µM (C2C12 skeletal myotubes; 0.3 μM) [%] | Percent change in total protein at 1 µM (C2C12 skeletal myotubes; 1 μM) [%] | Percent change in total protein at 3 µM (C2C12 skeletal myotubes; 3 μM) [%] | Percent Change in Total Protein (C2C12 skeletal myotubes; 0.03 μM) [%] | Percent Change in Total Protein (C2C12 skeletal myotubes; 0.1 μM) [%] | Percent Change in Total Protein (C2C12 skeletal myotubes; 0.3 μM) [%] | Percent Change in Total Protein (C2C12 skeletal myotubes; 1 μM) [%] | Percent Change in Total Protein (C2C12 skeletal myotubes; 3 μM) [%]
1 | CC(=O)NC[C@@H](C)CCC1=C(C)[C@H]2[C@H](C[C@H]3[C@@H]4CC[C@H]5C[C@@H](OC(C)=O)CC[C@]5(C)[C@H]4CC[C@@]32C)O1 [Example 1, (2aS,4S,6aS,6bS,8aS,8bS,11aS,12aS,12bR)-10-((S)-4-acetamido-3-methylbutyl)-6a,8a,9-trimethyl-2,2a,3,4,5,6,6a,6b,7,8,8a,8b,11a,12,12a,12b-hexadecahydro-1H-naphtho[2′,1′:4,5]indeno[2,1-b]furan-4-yl acetate] | 4.8 ± 1.4 | 1 ± 1.1 | 5.6 ± 3.3 | 10.7 ± 1.9 | 16.7 ± 1.3 | 18.1 ± 0.5 |  |  |  |  | 
2 | CC1=C(CC[C@H](C)CNC(=O)OC(C)(C)C)O[C@H]2C[C@H]3[C@@H]4CC[C@H]5C[C@@H](O)CC[C@]5(C)[C@H]4CC[C@]3(C)[C@@H]12 [Example 2, tert-Butyl ((S)-4-((2aS,4S, 6aS,6bS, 8aS, 8bS,11aS,12aS,12bR)-4-hydroxy-6a, 8a,9-trimethyl-2,2a,3 ,4,5,6,6a,6b,7,8,8a, 8b,11a,12,12a,12b-hexadecahydro-1H-naphtho[2′,1′:4,5]indeno[2,1-b]furan-10-yl)-2-methylbutyl)carbamate] | 8.6 ± 1.8 | 3.2 ± 2.1 | 3.2 ± 3 | 4.9 ± 3.9 | 8.3 ± 3.8 | 10.8 ± 3 |  |  |  |  | 
3 | CC1=C(CC[C@H](C)CN)O[C@H]2C[C@H]3[C@@H]4CC[C@H]5C[C@@H](O)CC[C@]5(C)[C@H]4CC[C@]3(C)[C@@H]12.Cl [Example 3, (2aS,4S,6aS,6bS,8aS,8bS,11aS,12aS,12bR)-10-((S)-4-Amino-3-methylbutyl)-6a,8a,9-trimethyl-2,2a,3,4,5,6,6a,6b,7,8,8a,8b,11a,12,12a,12b-hexadecahydro-1H-naphtho[2′,1′:4,5]indeno[2,1-b]furan-4-ol hydrochloride] | 8.3 ± 1.9 |  |  |  |  |  | 3.8 ± 1.8 | 6.7 ± 2.4 | 9.2 ± 2.4 | 16.4 ± 1.3 | 17.9 ± 0.7
4 | CC(=O)O[C@H]1CC[C@@]2(C)[C@@H](CC[C@@H]3[C@@H]2CC[C@@]2(C)[C@H]3C[C@@H]3OC(CC[C@H](C)CNC(=O)OC(C)(C)C)=C(C)[C@@H]32)C1 [Example 4, (2aS,4S,6aS,6bS,8aS,8bS,11aS,12aS,12bR)-10-((S)-4-((tert-butoxycarbonyl)amino)-3-methylbutyl)-6a,8a,9-trimethyl-2,2a,3,4,5,6,6a,6b,7,8,8a,8b,11a,12,12a,12b-hexadecahydro-1H-naphtho[2′,1′:4,5]indeno[2,1-b]furan-4-yl acetate acetate] |  | 4.3 ± 1.6 | 4 ± 2.1 | 11.2 ± 2.3 | 13.4 ± 1.5 | 11.4 ± 2.9 |  |  |  |  | 
5 | CC1=C(CC[C@H](C)CNC(=O)OCC(C)C)O[C@H]2C[C@H]3[C@@H]4CC[C@H]5C[C@@H](O)CC[C@]5(C)[C@H]4CC[C@]3(C)[C@@H]12 [Example 6, Isobutyl ((S)-4-((2aS,4S,6aS,6bS, 8aS, 8bS,11aS,12aS,12bR)-4-hydroxy-6a, 8a,9-trimethyl-2,2a,3,4,5,6,6a,6b,7,8,8a, 8b,11a,12,12a,12b-hexadecahydro-1H-naphtho[2′,1′:4,5]indeno[2,1-b]furan-10-yl)-2-methylbutyl)carbamate] |  | 1.1 ± 0.8 | -0.1 ± 3.1 | 4.2 ± 3.2 | 10.9 ± 3.1 | 9 ± 1.6 |  |  |  |  | 
6 | CC1=C(CC[C@H](C)CNC(C)C)O[C@H]2C[C@H]3[C@@H]4CC[C@H]5C[C@@H](O)CC[C@]5(C)[C@H]4CC[C@]3(C)[C@@H]12 [Example 7, (2aS,4S,6aS,6bS,8aS,8bS,11aS,12aS,12bR)-10-((S)-4-(Isopropylamino)-3-methylbutyl)-6a,8a,9-trimethyl-2,2a,3,4,5,6,6a,6b,7,8,8a,8b,11a,12,12a,12b-hexadecahydro-1H-naphtho[2′,1′:4,5]indeno[2,1-b]furan-4-ol] |  | -0.9 ± 1.5 | 0.5 ± 1.9 | 11.6 ± 2.3 | 11 ± 1.9 | 12.2 ± 3.2 |  |  |  |  | 
7 | CC1=C(CC[C@H](C)CN(C)C)O[C@H]2C[C@H]3[C@@H]4CC[C@H]5C[C@@H](O)CC[C@]5(C)[C@H]4CC[C@]3(C)[C@@H]12 [Example 8, (2aS,4S,6aS,6bS,8aS,8bS,11aS,12aS,12bR)-10-((S)-4-(Dimethylamino)-3-methylbutyl)-6a,8a,9-trimethyl-2,2a,3,4,5,6,6a,6b,7,8,8a,8b,11a,12,12a,12b-hexadecahydro-1H-naphtho[2′,1′:4,5]indeno[2,1-b]furan-4-ol] |  | 0.5 ± 2.1 | 5 ± 1.9 | 9.7 ± 0.7 | 10.7 ± 1.6 | 9.1 ± 1.2 |  |  |  |  | 
8 | CC1=C(CC[C@H](C)CNC(C)C(F)F)O[C@H]2C[C@H]3[C@@H]4CC[C@H]5C[C@@H](O)CC[C@]5(C)[C@H]4CC[C@]3(C)[C@@H]12 (stereo partly drawn) [Example 9, (2aS,4S,6aS,6bS,8aS,8bS,11aS,12aS,12bR)-10-((3S)-4-((1,1-Difluoropropan-2-yl)amino)-3-methylbutyl)-6a,8a,9-trimethyl-2,2a,3,4,5,6,6a,6b,7,8,8a,8b,11a,12,12a,12b-hexadecahydro-1H-naphtho[2′,1′:4,5]indeno[2,1-b]furan-4-ol] |  | -1.5 ± 2.3 | 1.2 ± 0.7 | 8.6 ± 2.5 | 6.2 ± 2.1 | 6.9 ± 2.6 |  |  |  |  | 
9 | CC1=C(CC[C@H](C)CNC(=O)OC(C)(C)C)O[C@H]2C[C@H]3[C@@H]4CC[C@H]5CC(NCCO)CC[C@]5(C)[C@H]4CC[C@]3(C)[C@@H]12 (stereo partly drawn) [Example 10, tert-Butyl ((2S)-4-((2aS,6aS,6bS,8aS,8bS,11aS,12aS,12bR)-4-((2-hydroxyethyl)amino)-6a,8a,9-trimethyl-2,2a,3,4,5,6,6a,6b,7,8,8a,8b,11a,12,12a,12b-hexadecahydro-1H-naphtho[2′,1′:4,5]indeno[2,1-b]furan-10-yl)-2-methylbutyl)carbamate] |  | 10.3 ± 2.7 | 10.6 ± 2.2 | 15 ± 2.2 | 12.9 ± 1.6 | 16.1 ± 1.6 |  |  |  |  | 
10 | CC1=C(CC[C@H](C)CN)O[C@H]2C[C@H]3[C@@H]4CC[C@H]5CC(NCCO)CC[C@]5(C)[C@H]4CC[C@]3(C)[C@@H]12.Cl.Cl (stereo partly drawn) [Example 11, 2-(((2aS,6aS,6bS,8aS,8bS,11aS,12aS,12bR)-10-((S)-4-amino-3-methylbutyl)-6a,8a,9-trimethyl-2,2a,3,4,5,6,6a,6b,7,8,8a,8b,11a,12,12a,12b-hexadecahydro-1H-naphtho[2′,1′:4,5]indeno[2,1-b]furan-4-yl)amino)ethanol dihydrochloride] |  |  |  |  |  |  | −1.8 ± 2.0 | 7.7 ± 1.5 | 6.3 ± 1.9 | 8.8 ± 2.1 | 4.9 ± 1.1
